Where two headings read alike, the source gives them in different places.

The source of these data is patent publication US20240058321A1, “FARNESYL-TRANSFERASE INHIBITORS AND KRAS INHIBITORS FOR TREATING KRAS MUTANT CANCERS” (SEMMELWEIS EGYETEM, priority 2021, published 2024).

Experiment [1] deals with SW480. The experiment is described as follows: 2D combinational test (SRB growth inhibition, six days). Format: cell-based, human. Particulars: Homo sapiens. An excerpt: (§1) OD values were normalized to control. […] Data shown are results of three independent experiments.
Experiment [2] has as its system SW1990. The description is as above. Format: cell-based, human. The note with it: Homo sapiens, SW1990, SW1990, read-out: Relative cell viability (MEAN).
Source text: as §1

The test system of experiment [3] is cancer patients. The note with it: patients, cited from earlier work.
The subject of experiment [4] is SW1573. Briefly: 2D combinational test (SRB growth inhibition, six days). The note with it: Homo sapiens.
Method: (§2) H358, SW1573, H1792, MIAPACA2, SW1990, SNUC2B, SW480, A549 and HCT116 were purchased from ATCC, while SW48 KRAS G12C colorectal cell line and H838 KRAS G12D lung cell line was bought from Horizon Discovery Ltd. Most of the cell lines were heterozygous for mutant KRAS, as in human cases used to occur, but we also used cell lines with homozygous mutant KRAS.
(§3) Cells were cultured in DMEM (Lonza, Switzerland; with 4500 mg/dm3 glucose, pyruvate and L-glutamine) supplemented with 10% fetal calf serum (EuroClone) and 1% penicillin-streptomycin-amphotericin (Lonza) in tissue culture flasks in a humidified 5% CO2 atmosphere at 37° C.
(§4) For in vitro experiments drugs were dissolved in DMSO in 10 mM stock concentration and stored at −80° C.
(§5) Cells that reached 70-80% confluency were trypsinized and counted using Luna II Automated Cell Counter. Cells were plated in 5000-10000 cells/well density (depending on the growth rate of the given cell line) on a 24 well plate. Next day the medium was replaced to fresh medium supplemented with the inhibitors. After 6 days, the wells were washed with DPBS (Lonza) and the cells were fixed by 10% trichloroacetic acid and stained with Sulphorodamine-B (SRB) (Sigma) dye for 15 minutes. Plates then were repeatedly washed with 1% acetic acid to remove excess dye. Protein-bound SRB was then dissolved in 10 mM Tris buffer (pH=7,4) and OD was measured at 570 nm using a microplate reader (EL800, BioTec Instruments, Winooski, VT). OD values were normalized to control. Transformed data then were used to calculate combinational index (CI) values using Compusyn software as described in https://www.combosyn.com/index.html. Data shown are results of three independent experiments.
Experiment [5] relates to PF97. The experiment is described as above. Particulars: Homo sapiens, 144 h.
Method: as §2, §3, §4, §5
Experiment [6] concerns MIAPACA2. The description is as above. The note with it: Homo sapiens, MIA PaCa-2, 144 h.
Method: as §2, §3, §4, §5

In the case of `NC(=O)N1CCC(CC(=O)N2CCC([C@H]3c4ncc(Br)cc4CCc4cc(Cl)cc(Br)c43)CC2)CC1` [lonafarnib], the viability at 0.5 µM in experiment [1] (500 nM lonafarnib + 0 μM BI2852, read-out: Relative cell viability (MEAN)) stood at 72%. Besides, the viability at 1 µM in experiment [1] (1000 nM lonafarnib + 0 μM BI2852, read-out: Relative cell viability (MEAN)) amounted to 63.9%; in experiment [2] (1000 nM lonafarnib + 0 nM MRTX1133), 64.8%. The viability at 2 µM in experiment [1] (2000 nM lonafarnib + 0 μM BI2852, read-out: Relative cell viability (MEAN)) was 55.7%; in experiment [2] (2000 nM lonafarnib + 0 nM MRTX1133), 57.6%. The viability at 0.2 µM in experiment [2] (200 nM lonafarnib + 0 nM MRTX1133) was determined as 83.1%. The Objective responses entry in experiment [3] (colorectal cancer) is “no objective responses”. Moreover, the “Progression-free or overall survival” value in experiment [3] (ovarian cancer, in combination with chemotherapy) was “does not improve”.
As to `C=CC(=O)N1CCN(c2nc(=O)n(-c3c(C)ccnc3C(C)C)c3nc(-c4c(O)cccc4F)c(F)cc23)[C@@H](C)C1` [AMG-510], the viability at 0.01 µM stood at 99.5% in experiment [4] (SW1573, read-out: Viability data (MEAN), SW1573, BPH1222 0 μM + AMG-510 10 nM) and 96.6% in experiment [4] (SW1573, read-out: Viability data (MEAN), SW1573, SIMVASTATIN 0 μM + AMG-510 10 nM). In addition, the viability at 0.025 µM came out at 99.8% in experiment [4] (SW1573, read-out: Viability data (MEAN), SW1573, BPH1222 0 μM + AMG-510 25 nM) and 92.5% in experiment [4] (SW1573, read-out: Viability data (MEAN), SW1573, SIMVASTATIN 0 μM + AMG-510 25 nM). For the same molecule, the viability at 0.05 µM in experiment [4] (SW1573, read-out: Viability data (MEAN), SW1573, BPH1222 0 μM + AMG-510 50 nM) stood at 97.7%; in experiment [4] (SW1573, read-out: Viability data (MEAN), SW1573, SIMVASTATIN 0 μM + AMG-510 50 nM), 89.9%.
Take `C=C(F)C(=O)N1CCN(c2nc(OC[C@@H]3CCCN3C)nc3c2CCN(c2cccc4cccc(Cl)c24)C3)C[C@@H]1CC#N` [adagrasib]: the viability at 0.025 µM in experiment [5] (read-out: Relative cell viability, 6/A1, 25 nM adagrasib + 0 nM tipifarnib) came to 58.2%; in experiment [6] (read-out: Relative cell viability, 6/A2, 25 nM adagrasib + 0 nM tipifarnib) it was 50.4%; in experiment [6] (read-out: Relative cell viability, 7/A2, 25 nM adagrasib + 0 nM lonafarnib), 50.8%; in experiment [4] (SW1573, 144 h, read-out: Relative cell viability, 6/A3, SW1573, 25 nM adagrasib + 0 nM tipifarnib, six days), 77.3%; in experiment [4] (SW1573, 144 h, read-out: Relative cell viability, 7/A3, SW1573, 25 nM adagrasib + 0 nM lonafarnib, six days) it was 79.4%. Besides, the viability at 0.1 µM in experiment [5] (read-out: Relative cell viability, 6/A1, 100 nM adagrasib + 0 nM tipifarnib) is 46.7%; in experiment [5] (read-out: Relative cell viability, 7/A1, 100 nM adagrasib + 0 nM lonafarnib), 29.2%; in experiment [6] (read-out: Relative cell viability, 6/A2, 100 nM adagrasib + 0 nM tipifarnib) it was 28.9%; in experiment [6] (read-out: Relative cell viability, 7/A2, 100 nM adagrasib + 0 nM lonafarnib), 27.3%; in experiment [4] (SW1573, 144 h, read-out: Relative cell viability, 6/A3, SW1573, 100 nM adagrasib + 0 nM tipifarnib, six days), 67.2%; in experiment [4] (SW1573, 144 h, read-out: Relative cell viability, 7/A3, SW1573, 100 nM adagrasib + 0 nM lonafarnib, six days) it was 72.5%. Besides, the viability at 0.5 µM in experiment [5] (read-out: Relative cell viability, 6/A1, 500 nM adagrasib + 0 nM tipifarnib) was found to be 45.9%; in experiment [5] (read-out: Relative cell viability, 7/A1, 500 nM adagrasib + 0 nM lonafarnib) it was 19.4%. Also, the viability at 0.01 µM was 52.5% in experiment [5] (read-out: Relative cell viability, 7/A1, 10 nM adagrasib + 0 nM lonafarnib); 85.3% in experiment [4] (SW1573, 144 h, read-out: Relative cell viability, 6/A3, SW1573, 10 nM adagrasib + 0 nM tipifarnib, six days); 86.6% in experiment [4] (SW1573, 144 h, read-out: Relative cell viability, 7/A3, SW1573, 10 nM adagrasib + 0 nM lonafarnib, six days). Further, the viability at 0.05 µM was 38.3% in experiment [6] (read-out: Relative cell viability, 6/A2, 50 nM adagrasib + 0 nM tipifarnib) and 37.5% in experiment [6] (read-out: Relative cell viability, 7/A2, 50 nM adagrasib + 0 nM lonafarnib).
